Experimental data taken from PubChem BioAssay (NCI).
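All cell lines were grown in 96-well plates and treated with compound for 48 hours. GI50 = concentration required for 50% inhibition of growth. TGI denotes the concentration required for complete inhibition of growth.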

Experiments:
Assay in all cases: inhibition of tumour cell growth, NCI panel, 48 h
SNB-19 CNS = test system: SNB-19 CNS
MOLT-4 leukemia = test system: MOLT-4 leukemia
HCT-116 colon = test system: HCT-116 colon
MALME-3M melanoma = test system: MALME-3M melanoma
IGROV1 ovarian = test system: IGROV1 ovarian
COLO 205 colon = test system: COLO 205 colon
SF-268 CNS = test system: SF-268 CNS
CCRF-CEM leukemia = test system: CCRF-CEM leukemia
HL-60(TB) leukemia = test system: HL-60(TB) leukemia
PC-3 prostate = test system: PC-3 prostate

Structure (SMILES)	TGI (SNB-19 CNS)	TGI (MOLT-4 leukemia)	TGI (HCT-116 colon)	TGI (MALME-3M melanoma)	TGI (IGROV1 ovarian)	TGI (COLO 205 colon)	TGI (SF-268 CNS)	TGI (CCRF-CEM leukemia) [µM]	TGI (HL-60(TB) leukemia)	GI50 (SNB-19 CNS)	GI50 (MOLT-4 leukemia)	GI50 (HCT-116 colon)	GI50 (MALME-3M melanoma)	GI50 (IGROV1 ovarian)	GI50 (COLO 205 colon)	GI50 (SF-268 CNS)	GI50 (PC-3 prostate)	TGI (PC-3 prostate)	GI50 (HL-60(TB) leukemia)	GI50 (CCRF-CEM leukemia) [nM]
O=[N+]([O-])c1ccccc1C=NC12CC3CC(CC(C3)C1)C2	> 100 µM	> 100 µM	> 100 µM	> 100 µM	> 100 µM	> 100 µM	> 100 µM	> 100	57.1 µM											
C=C(CC(=O)O)C(=O)O (tested in a mixture with another compound)	> 50 µg/mL	> 50 µg/mL	> 50 µg/mL	> 50 µg/mL	> 50 µg/mL	> 50 µg/mL	> 50 µg/mL		17.2 µg/mL	> 50 µg/mL	> 50 µg/mL	> 50 µg/mL	> 50 µg/mL	> 50 µg/mL	> 50 µg/mL	> 50 µg/mL	> 50 µg/mL	> 50 µg/mL	8.94 µg/mL	
CN1CCN(c2nc(NCCCNc3ccnc4cc(Cl)ccc34)c3ccccc3n2)CC1	15.3 µM	15.2 µM	12.1 µM	3.84 µM	18.9 µM	4.51 µM	19.2 µM		4.39 µM	3.77 µM	3250 nM	3.3 µM	1.98 µM	4.52 µM	1860 nM	4.71 µM	6.14 µM	20.7 µM	2140 nM	
C/C=C/[C@H]1O[C@@H]2C(=C[C@H]1O)C(=O)O[C@H]2C	> 54.6 µM	10.5 µM	16.7 µM	24.2 µM	> 59.9 µM	> 32.1 µM	> 95 µM		> 100 µM	35.6 µM	2770 nM	4.19 µM	7.59 µM	17.1 µM	4020 nM	30.1 µM	14.8 µM	30.8 µM	35700 nM	
Oc1cccc(/C=N/Nc2nnc(N/N=C/c3cccc(O)c3)c3ccccc23)c1	> 100 µM	6.43 µM	43.1 µM	57.3 µM	47.7 µM	> 100 µM	> 100 µM	88.3										44.4 µM		
CCCCNC(=O)Oc1ccc(/C(=C(/C)Cc2ccc(OC)cc2)c2ccc(OCCN3CCCC3)cc2)cc1	11.4 µM	7.72 µM	2.98 µM	3.28 µM	4.52 µM	3.57 µM	4.4 µM	7.41	3.82 µM	3.47 µM	1980 nM	1.55 µM	1.7 µM	2.11 µM	1830 nM	1.98 µM			1640 nM	2570
O=[n+]1c2ccccc2n([O-])c2cc(Cl)ccc21	39.5 µM	2.03 µM	12.7 µM	20.8 µM	6.95 µM	18.2 µM	10.7 µM	5	4.47 µM	9.46 µM	385 nM	3.37 µM	7.76 µM	1.86 µM	4650 nM	2.99 µM			2070 nM	533
